Measurements: patent US20240099295A1, “CELL TREATMENT AGENT” (AYA Inc., priority 2021, published 2024)

Experiments:
Assay type in all cases: cell-based
[1] = tested on: Rat corneal epithelial cell; test: Cell dormancy effect: cell cycle analysis by flow cytometry; conditions: serum-free cell culture solution, cultured 48 hours at 37° C.
Experimental: Sodium alginate (sodium alginate first grade reagent, available from FUJIFILM Wako Pure Chemical Corporation, viscosity of 1% aqueous solution is 120 mPa·s at 20° C.), DS (the same as in Experimental Example 1), or sodium heparin (the same as in Experimental Example 1) was used as an active ingredient in the cell treatment agent, and whether cell dormancy occurs or not by action of the active ingredient was examined by comparing the activities of cell division and proliferation which are the most general cell activities in the following manner.
The cell cycle was analyzed by flow cytometry according to the method described in known literature (Piotr Pozarowski and Zbigniew Darzynkiewicz, “Analysis of Cell Cycle by Flow Cytometry,” Methods in Molecular Biology, vol. 281: Checkpoint Controls and Cancer, Volume 2), and frequency of cell division and proliferation was compared between different active ingredients of the cell treatment agent. A specific method is as follows. Using a normal serum-free cell culture solution as a conditioning solution (comparison reference (a)), (b) a cell preservation solution in which sodium alginate (Na alginate) is added to the conditioning solution in a concentration of 2.5 mg/ml, (c) a cell preservation solution in which DS is added to the conditioning solution in a concentration of 0.1 mg/ml, and (d) a cell preservation solution in which heparin sodium (heparin Na) is added to the conditioning solution in a concentration of 50 units/ml, were prepared. To these cell preservation solutions, rat corneal epithelial cells were added at a cell concentration of 10^5 cells/ml and cultured for 48 hours under normal cell culture conditions (37° C., CO2 concentration of 5%, humidity of 100%). The number of cells in each culture was determined by cell cycle analysis using flow cytometry to determine the number of cells in each cell cycle, and the percentage of cells in the S phase, G2 phase, and M phase, which are considered as the periods of the cell division and proliferation process, was compared with the percentage of cells in the G0 phase and G1 phase, which are considered as other periods. The results are of N=4.

[2] = tested on: rat corneal epithelial cells; test: Re-adhesion of detached and suspended cells to calcium phosphate film (F-actin fluorescent staining)
Excerpt: Whether the cells having been detached and suspended as described above were re-adhered by calcium ions was examined. Part of the bottom of the culture dish was coated with a slurry of calcium phosphate fine powder mixed with distilled water and dried in an oven to separately prepare a culture dish in which a film of fine powder of calcium phosphate was stuck to the bottom of the dish. Then, to the culture dish with the calcium phosphate film and the culture dish without the film (control), a cell culture solution containing the detached and suspended cells as described above was added, the culture dishes were placed on the base of a shaker (product name: Laboshaker Model BC-740, available from BIO CRAFT Corporation), the shaking intensity was set to the lowest level, the shaking frequency was set to 4 times/min, and the cells were cultured under normal cell culture conditions (37° C., CO2 concentration of 5%, humidity of 100%) for 24 hours while the culture dishes were gently shaken. The culture solution in each culture dish was then removed, and the culture dishes were gently washed with 10% FBS cell culture solution, and then viable cells adhered to the inner wall of the culture dishes were observed under a microscope (inverted fluorescence/visible microscope with cooled CCD camera, IX83, available from Olympus Corporation) by the fluorescent staining method of F-actin using viable cell staining by a fluorescent dye (CytoPainter F-actin Staining Kit, available from Abcam). The fluorescent staining method of F-action can be performed, for example, according to the method described in Vera D M, Robert J E, Ved P S, Orrin S and John S C, “Optimizing leading edge F-actin labeling using multiple actin probes, fixation methods and imaging modalities” BIOTECHNIQUES, VOL. 66, NO. 3, (2019), or in Michael M, Matthias P and Robert G “Actin visualization at a glance” n J. Cell Sci. 130, 525-530. (2017) doi:10.1242/jcs.20448.
In FIGS. 1 to 4, the part that looks white or gray is a viable cell group stained with the fluorescent dye.

[3] = tested on: Chinese hamster fibroblast; test: Cell protective effect: cell survival during preservation (trypan blue excretion test); conditions: Chinese hamster fibroblasts; same preservation experiments; values not given
Experimental: Using a normal serum-free cell culture solution without FBS or a Ringer's solution (Otsuka Pharmaceutical Co., Ltd., Lactec Injection, Japanese Pharmacopoeia, Sodium L-lactate Ringer's solution) as a conditioning solution for use, for example, in preservation and transportation of cells, sodium alginate (Na alginate) (Fuji Chemical Industry Co., Ltd. Snow Algin SSL, viscosity of 1% aqueous solution is 30 mPa·s at 20° C.) was added to the conditioning solution in the concentrations shown in Table 1 to prepare cell preservation solutions. To each cell preservation solution, the above-described cells were added at a concentration of 10^6 cells/ml to satisfy the conditions shown in Table 1, and the resultant solution was left to stand in a room at normal temperature (22° C.) for 24 hours, and then whether cells were alive or dead was determined, and rates of viable cells (average survival rate (%)) were calculated and compared. Cell viability was determined by the trypan blue excretion test that is the ordinary method of confirming cell viability. The excretion test was performed according to the method described in “Denizot F., et al., Rapid colorimetric assay for cell growth and survival. Modifications to the tetrazolium dye procedure giving improved sensitivity and reliability. J. Immunol. Methods, 89, 271-277 (1986)”. The results are of N=4.
The average survival rate (%) was determined in the same manner as in Experimental Example (1-1-1) except that the preservation conditions were changed to leaving still for 72 hours in a refrigerator at a set temperature of 4° C. The results are of N=4.

[4] = tested on: Rat corneal epithelial cell; test: Cell detaching and suspending effect under gentle shaking (Experimental Example 5); conditions: cell culture solution containing 10% FBS, 37° C.
Experimental: In the same manner as in Experimental Example 4, rat corneal epithelial cells were sufficiently adhered to the culture dish wall which is a scaffold.
To the culture solutions in the culture dish on which cultured cells obtained in the manner as described above had adhered, each active ingredient was added in a concentration shown in Table 14, or no active ingredient was added. Each culture dish was then placed on the base of a shaker (product name: Laboshaker Model BC-740, available from BIO CRAFT Corporation), the shaking intensity was set to the lowest level, and the shaking frequency was set to 4 times/min, and cells were cultured under normal cell culture conditions (37° C., CO2 concentration of 5%, humidity of 100%) for 24 hours while each culture dish was gently shaken. Then, detachment and suspension of cells after 24 hours of culturing was observed. For determination of detachment and suspension, whether cells were detached from the dish wall and suspended under shaking of the culture dish was observed, and the case where 90% or more of the cells were detached and suspended was determined as “detached and suspended”, and “detached and suspended” cells were marked with “∘” and “undetached and unsuspended” cells were marked with “x”. The results are of N=4.

[5] = culture dish with calcium phosphate film, 24 hours culture under gentle shaking (FIGS. 1 and 2)
[6] = culture dish without calcium phosphate film (control), 24 hours culture under gentle shaking (FIGS. 3 and 4)

Substance | Percentages of cells of each cell cycle: G0 phase + G1 phase ([1]; DS 0.1 mg/mL) | Percentages of cells of each cell cycle: S phase + G2 phase + M phase ([1]; DS 0.1 mg/mL) | Re-adhesion of detached and suspended viable cells [2, 5] | Re-adhesion of detached and suspended viable cells [2, 6] | Effect of improving cell viability (cell protective effect) [3] | Detachment at lapse of 24 hours after addition of active ingredient ([4]; DS 0.5 mg/mL) | Percentages of cells of each cell cycle: G0 phase + G1 phase ([1]; Heparin Na 50 units/mL) | Percentages of cells of each cell cycle: S phase + G2 phase + M phase ([1]; Heparin Na 50 units/mL) | Detachment at lapse of 24 hours after addition of active ingredient ([4]; Heparin Na 100 units/mL)
dextran sulfate [DS] | 92.4% | 5.77% | numerous viable cells were observed adhering | a very small number of viable cells adhered | the cell protective effect was also observed | ∘ (“detached and suspended” cells were marked with “∘”) | – | – | –
heparin sodium [Heparin Na, reference compound] | – | – | numerous viable cells were observed adhering | a very small number of viable cells adhered | the cell protective effect was also observed | – | 89.7% | 7.68% | ∘ (“detached and suspended” cells were marked with “∘”)
